Results taken from ChEMBL document CHEMBL1149119, “Discovery of a potent and novel motilin agonist” (J Med Chem, 2004).

Experiments:
Motilin receptor [1] = biological target: T1, Motilin receptor (Homo sapiens, UniProt O43193); test: In vitro effective concentration towards human motilin receptor; format: functional
Motilin receptor [2] = biological target: T1, Motilin receptor; test: In vitro binding affinity towards human motilin receptor

T1 sequence (O43193 whole entry): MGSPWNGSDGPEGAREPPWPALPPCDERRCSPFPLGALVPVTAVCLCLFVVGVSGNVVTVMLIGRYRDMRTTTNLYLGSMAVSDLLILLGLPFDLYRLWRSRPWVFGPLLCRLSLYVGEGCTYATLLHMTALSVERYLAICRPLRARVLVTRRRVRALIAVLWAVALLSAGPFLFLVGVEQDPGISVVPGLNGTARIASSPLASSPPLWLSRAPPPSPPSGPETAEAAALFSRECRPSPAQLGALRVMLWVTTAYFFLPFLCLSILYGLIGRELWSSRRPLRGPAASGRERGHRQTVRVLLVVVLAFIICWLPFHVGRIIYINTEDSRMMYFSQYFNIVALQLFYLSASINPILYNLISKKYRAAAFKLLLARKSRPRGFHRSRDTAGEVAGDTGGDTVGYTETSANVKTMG

Row | Compound | EC50 (Motilin receptor [1]) [nM] | Ki (Motilin receptor [2]) [nM]
1 | NC(=O)[C@@H](CCc1ccccc1)NC(=O)[C@@H](CCc1ccccc1)NC(=O)C1CCC2(CCNCC2)n2c(=O)n(Cc3ccc4c(c3)OCO4)c(=O)n21 (stereo partly specified) | 7.3 | 2.7
2 | NC(=O)[C@@H](CCc1ccccc1)NC(=O)C1C=CC2(CCNCC2)n2c(=O)n(Cc3ccc4c(c3)OCO4)c(=O)n21 (stereo partly specified) | > 10000 | > 10000
3 | NC(=O)[C@H](CCc1ccccc1)NC(=O)[C@H](CCc1ccccc1)NC(=O)C1CCC2(CCNCC2)n2c(=O)n(Cc3ccc4c(c3)OCO4)c(=O)n21 (stereo in doubt; 11A) | 0.047 | 0.7
4 | NC(=O)[C@H](CCc1ccccc1)NC(=O)[C@H](CCc1ccccc1)NC(=O)C1CCC2(CCNCC2)n2c(=O)n(Cc3ccc4c(c3)OCO4)c(=O)n21 (stereo in doubt; 11) | 0.35 | 1
5 | NC(=O)[C@H](CCc1ccccc1)NC(=O)C1C=CC2(CCNCC2)n2c(=O)n(Cc3ccc4c(c3)OCO4)c(=O)n21 (stereo in doubt; 1B) | 560 | 4100
6 | NC(=O)[C@H](CCc1ccccc1)NC(=O)C1C=CC2(CCNCC2)n2c(=O)n(Cc3ccc4c(c3)OCO4)c(=O)n21 (stereo in doubt; 13B) | > 10000 | > 10000
7 | NC(=O)[C@H](CCc1ccccc1)NC(=O)C1C=CC2(CCNCC2)n2c(=O)n(Cc3ccc4c(c3)OCO4)c(=O)n21 (stereo in doubt; 1A) | > 10000 | 5800
8 | CC[C@H](C)[C@H](NC(=O)[C@@H]1CCCN1C(=O)[C@@H](NC(=O)[C@@H](N)Cc1ccccc1)C(C)C)C(=O)N[C@@H](Cc1ccccc1)C(=O)N[C@H](C(=O)N[C@@H](Cc1ccc(O)cc1)C(=O)NCC(=O)N[C@@H](CCC(=O)O)C(=O)N[C@@H](CC(C)C)C(=O)N[C@@H](CCC(N)=O)C(=O)N[C@@H](CCCNC(=N)N)C(=O)N[C@@H](CCSC)C(=O)N[C@@H](CCC(N)=O)C(=O)N[C@@H](CCC(=O)O)C(=O)N[C@@H](CCCCN)C(=O)N[C@@H](CCC(=O)O)C(=O)N[C@@H](CCCNC(=N)N)C(=O)N[C@@H](CC(N)=O)C(=O)N[C@@H](CCCCN)C(=O)NCC(=O)N[C@@H](CCC(N)=O)C(=O)O)[C@@H](C)O [MOTILIN] | 0.15 | 3.1

The next lines start with the values.

Row | EC50 (Motilin receptor [1]) [nM] | Ki (Motilin receptor [2]) [nM] | Compound
9 | 0.22 | 2 | NC(=O)[C@H](CCc1ccccc1)NC(=O)[C@H](CCc1ccccc1)NC(=O)C1C=CC2(CCNCC2)n2c(=O)n(Cc3ccc4c(c3)OCO4)c(=O)n21 (stereo partly specified)
10 | > 10000 | > 10000 | COC(=O)[C@@H](CCc1ccccc1)NC(=O)C1C=CC2(CCNCC2)n2c(=O)n(Cc3ccc4c(c3)OCO4)c(=O)n21 (stereo partly specified)
11 | > 10000 |  | C[C@H](NC(=O)C1C=CC2(CCNCC2)n2c(=O)n(Cc3ccc4c(c3)OCO4)c(=O)n21)C(N)=O (stereo partly specified)
12 | 4.2 | 3.4 | CC[C@H]1OC(=O)[C@H](C)[C@@H](O[C@H]2C[C@@](C)(OC)C[C@@H](C)O2)[C@H](C)[C@@H](O[C@@H]2O[C@H](C)C[C@H](N(C)CC)[C@H]2O)[C@@]2(C)CC(C)=C(O2)[C@H](C)[C@@H](O)[C@H]1C
13 | 4200 |  | NC(=O)[C@@H](Cc1ccccc1)NC(=O)C1C=CC2(CCNCC2)n2c(=O)n(Cc3ccc4c(c3)OCO4)c(=O)n21 (stereo partly specified)
14 | > 10000 |  | C[C@@H](NC(=O)C1C=CC2(CCNCC2)n2c(=O)n(Cc3ccc4c(c3)OCO4)c(=O)n21)C(N)=O (stereo partly specified)
15 | > 10000 |  | NC(=O)[C@H](Cc1ccccc1)NC(=O)C1C=CC2(CCNCC2)n2c(=O)n(Cc3ccc4c(c3)OCO4)c(=O)n21 (stereo partly specified)
